What all share (assay): relative viability (nuclei count vs DMSO), 5 days (fraction); higher = more cells survive
Compound in experiment [1]: CN[C@@H]1C[C@H]2O[C@@](C)([C@@H]1OC)n1c3ccccc3c3c4c(c5c6ccccc6n2c5c31)C(=O)NC4 [Staurosporine] + Cc1cc(Nc2cc(N3CCN(C)CC3)nc(Sc3ccc(NC(=O)C4CC4)cc3)n2)n[nH]1 [Tozasertib] (partner 0.1 µM)
The procedure, abridged: (§1)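 One day after seeding in 1536-well plates, lung cancer cell lines were dosed by pin tool. Dosing was either single-drug or a fixed anchor-drug dose plus five library-drug doses (not always all listed) in √10 steps. After 5 days, nuclei were stained in one fix-and-stain step and counted on 4× images, and relative viability is the nuclei count of treated wells over that of vehicle wells, given as the median of duplicate plates.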

Compound in experiment [2]: O=c1[nH]cc(F)c(=O)[nH]1 [5-Fluorouracil] + Nc1ncn([C@H]2C[C@H](O)[C@@H](CO)O2)c(=O)n1 [Decitabine] (partner 2 µM)
The gist of the method:
as §1

Compound in experiment [3]: O=c1[nH]cc(F)c(=O)[nH]1 [5-Fluorouracil] + CC(=O)Nc1cccc(-n2c(=O)n(C3CC3)c(=O)c3c(Nc4ccc(I)cc4F)n(C)c(=O)c(C)c32)c1 [Trametinib] (partner 0.02 µM)
The gist of the method: as §1

Compound in the experiment “Sulindac + Pictilisib”: CC1=C(CC(=O)O)c2cc(F)ccc2/C1=C\c1ccc([S+](C)[O-])cc1 [Sulindac] + CS(=O)(=O)N1CCN(Cc2cc3nc(-c4cccc5[nH]ncc45)nc(N4CCOCC4)c3s2)CC1 [Pictilisib] (partner 1 µM)
The procedure, abridged: as §1

For UMC-11, the relative viability worked out at 0.189 in experiment [1] (first compound 0.005 µM); 0.161 in experiment [1] (first compound 0.01581 µM); 0.145 in experiment [1] (first compound 0.05 µM); 0.127 in experiment [1] (first compound 0.1581 µM); 0.122 in experiment [1] (first compound 0.5 µM); 0.593 in experiment [2] (first compound 0.02 µM). Also, the relative viability in experiment [2] (first compound 0.2 µM) came out at 0.565; in experiment [2] (first compound 0.6325 µM) it was 0.497; in experiment [3] (first compound 0.02 µM), 0.711; in experiment [3] (first compound 0.2 µM), 0.673; in experiment [3] (first compound 0.6325 µM), 0.448; with Sulindac + Pictilisib (first compound 0.08 µM), 1.18. Moreover, the relative viability with Sulindac + Pictilisib (first compound 0.253 µM) turned out to be 0.816; in the experiment with Sulindac + Pictilisib (first compound 0.8 µM), 0.704; with Sulindac + Pictilisib (first compound 2.53 µM), 0.667; in the experiment with Sulindac + Pictilisib (first compound 8 µM) it was 0.793.
